Measured values published in patent US20130274651A1, “SYSTEM AND METHOD FOR IMPROVING OUTCOME OF CEREBRAL ISCHEMIA” (priority 2012, published 2013).
“Also recorded” adds a separate entry of the source.

How the values were obtained:
[1] = Cerebral blood flow by cortical laser Doppler during intranasal nitric oxide in intubated rodents; assay type: in vivo
Description: (§1) In intubated rodents, the inventors have shown that cerebral blood flow increases by 100% within 60 minutes of intranasal nitric oxide delivery.

[2] = Carotid artery occlusion model, Speckle laser Doppler, intubated rodents; assay type: in vivo
Description: as §1
Increase in cerebral blood flow is attributable to focal intranasal or intra-oral effect of nitric oxide rather than to systemic absorption of the gas. […] The effect on cerebral blood flow during intranasal delivery of nitric oxide with concomitant air inhalation into the lungs is therefore a focal effect on intranasal and intracranial vasculature attributable specifically to nitric oxide. […] In a non-intubated patient, nitric oxide inhalation can be prevented by occluding the nasal cavity anterior or posterior to the site of gas delivery. This is achieved by means of an anterior occlusion device such a rigid member, an expandable member, a compressible member, a sponge, a porous member, a plug, a balloon, foam and/or combinations of the foregoing, which prevent inhalation through the nostrils while maintaining a high concentration of nitric oxide in the nasal cavity. A non-intubated patient may be allowed to inhale air into the lungs during nitric oxide delivery into the nasal cavity by an optional central lumen with the distal orifice beyond the sites of nasal gas delivery and occlusion device.

[3] = CT perfusion scanning in intubated patients with cerebral ischemia treated with intranasal non-inhaled nitric oxide; assay type: in vivo, human
[4] = Tolerability of intranasal delivery in humans (normal volunteers); assay type: in vivo, human; settings: high concentration
Text: While nitric oxide may be given intranasally and without inhalation into the lungs to intubated, comatose individuals the tolerability of intranasal nitric oxide in awake humans has not previously been investigated. The inventors have tested the effect of nitric oxide in humans (normal volunteers) during intranasal delivery. […] Therefore it can easily be tolerated by awake, non-intubated patients.

SMILES: [N]=O [nitric oxide]
- cerebral blood flow change (FIG. 8) ([1]; cortical laser Doppler, during intranasal administration): doubling of cerebral blood flow
- cerebral blood flow increase ([1]; within 60 minutes of intranasal delivery): 100%
- perfusion in the ischemic hemisphere ([2]; during carotid occlusion and following ligature release): perfusion is improved in the ischemic hemisphere
- cerebral ischemia (FIG. 9) ([2]; intubated rodents, Speckle laser Doppler tracing): reduction of cerebral ischemia
- Cerebral Blood Flow, Changes in ACA Watershed ([3]; Post Rx): Normalization,
- Mean Transit Time, Changes in ACA Watershed ([3]; Post Rx): Normalization
- Mean Transit Time, Left Hemisphere (ischemic) ([3]; Post Rx): 6.0 s
- Mean Transit Time, Right Hemisphere (normal) ([3]; Post Rx): 6.1 s
- Cerebral Blood Flow, increase in perfusion on L (ACA Watershed) ([3]; Post Rx vs Pre Rx, left ischemic hemisphere): 67% increase in
- cerebral perfusion, CT perfusion scanning ([3]; intubated patients / human with focal cerebral ischemia, before vs after treatment): improvement in cerebral perfusion; also recorded: augmentation of cerebral perfusion and normalization of regional perfusion abnormalities
- tolerability of intranasal delivery without inhalation [4]: tolerated at high concentration
